US4835160A, “Derivatives of pyridoindole, having anti-tumor properties” (Sanofi, priority 1986, dated 1989)
Read-outs that look alike come from different tables or passages of the source.

What was measured:
[1] = tested on: leukemia tumour line L 1210; assay: In vitro cytotoxic activity on leukemia tumour line L 1210; type: cell-based; details: L 1210, 48 hours contact, 37° C., read-out: I D 50 (concentration which inhibits the proliferation of the cells by 50%)
Description: (1) In vitro: ([…] et al., Chem. Biol. Interaction, 1979, 25, 45-58). The cytotoxic activity of the compounds of the invention has been evaluated by in vitro tests. These tests consist of adding increasing concentrations of the compound under test to a cellular culture of the leukemia tumour line L 1210 in an exponential phase of growth. The cellules are incubated at 37° C. in a CO2 incubator and counted every 24 hours. The calculation of the I D 50 (concentration of the product, expressed in 1^-1 micromole, which inhibits the proliferation of the cells by 50%) is made after 48 hours contact.

[2] = tested on: melanoma B 16; assay: Test for melanoma B 16; type: in vivo, BDF1 hybrid mice; details: D1-D9; for Number of survivors: day D60; for T/C %: survival time
Description: (§1) The antitumour activity was tested in vivo on various tumours inoculated in various ways according to the following general protocol:
(§2) All the male or female mice are inoculated on day D0 with a known quantity of viable tumour cells for ascitic tumours or with a known tumour fragment for solid tumours.
(§3) They are then distributed into various groups. Each group, corresponding to the animals treated by the product under test, is made up of 10 mice. The product under test is dissolved in distilled water and it is administered n times (Dx-Dy), n, y, and x varying according to the protocol chosen, at the rate of 0.1 ml of solution per 10 g by weight of mice treated and at specific doses for each protocol.
(§4) The "negative control" group, corresponding to the animals which are not treated by the product, contains 2√N animals, N being equal to or greater than the total number of mice treated by the product in the same experiment.
(§5) Finally, the tests can also be carried out at the same time as the study of a group called "positive control", of ten animals, which is treated by a molecule, known for its antitumour activity and which can vary according to the protocol chosen, in the same conditions as the groups treated by the product under test.
(§6) The antitumour activity is evaluated, in the case of ascitic tumours, by considering the increase in the survival time of the animals treated in comparison to that of the animals in the "negative control" group, according to the formula: [formula]
(§7) Also, a product is considered as toxic at the dose studied when this T/C value is equal to or less than 85%. In addition, a product is also considered as toxic at the dose studied when the weight variation, expressed in grams and calculated by the formula: […]
(d) Test for melanoma B 16 (GERAN et al., Cancer Chemother., 1972, 2, 07-75).
The tests are carried out with BDF1 hybrid mice inoculated by intraperitoneal route with 0.5 ml of a homogenate of melanoma B 16 made up from 1 g of tumour in 10 ml of physiological serum. The compound under test is administered for 9 days (D1-D9) by intraperitoneal route. The positive control for the test is Cis-Platine administered in the same conditions. The number of surviving animals is evaluated on day D60.

[3] = tested on: leukemia P 388; assay: Test of leukemia P 388; IP/IP, D1-5; type: in vivo, CDF1 hybrid mice; details: D1-D5; for Number of survivors: day D30; for T/C %: survival time
Description: (2) In vivo: (GERAN et al., Cancer Chemother., 1972, 2, 07-57):
as §1, §2, §3, §4, §5, §6
The criterion for activity varies according to the protocol.
as §7
"Average weight of the group measured on day 5--Average weight of the same group measured on day 1"
is equal to or less than 4 g.
(a) Test of lelukemia P 388; IP/IP, D1-5 (GERAN et al., Cancer Chemother., 1972, 2, 07-57).
The tests are carried out with CDF1 hybrid mice inoculated by intraperitoneal route with 10^6 leukemia cells from the P 388 line. The compound under test is administered for 5 successive days (D1-D5) by intraperitoneal route. The positive control for the test is 5-fluorouracile which is administered in the same conditions. The number of surviving animals is evaluated on day D30.

[4] = in vivo; set-up: species or system CDF1 hybrid mice; details: mouse, ip
Excerpt: The compounds of the invention benefit from a good tolerance and a weak toxicity.
Thus the administration, to healthy CDF1 hybrid mice, in a single injection by intraperitoneal route, of the compounds under test, has enabled it to be established that the product is perfectly tolerated at a high dosage since the survival rate of the animals of the experiment was 100 out of 100 thirteen days after administration.

[5] = tested on: reticulosarcoma M5-M5076; assay: Test for reticulosarcoma M5-M5076; type: in vivo, BDF1 hybrid mice; details: 50 mg/kg IP, D1,5,9,13,17
Description: as §1, §2, §3, §4, §5, §6, §7
The tests are carried out with BDF1 hybrid mice inoculated by intraperitoneal route with 10^6 cells of the M5-M5076 line. The compound under test is administered 5 times successively in sequence (D1,5,9,13,17) by intraperitoneal route. The positive control for the test is cyclophosphamide administered in the same conditions. The number of surviving animals is evaluated on day D75.

SMILES: Cc1cnc(NCCCN(C)C)c2c1[nH]c1ccc(O)cc12 [Derivative No. 9, 1-(3-dimethylaminopropylamino)-8-hydroxy-4-methyl-5H-pyrido[4,3-b]indole]
- IC50 ([1]; Mus musculus, L1210, 48 h): 90 nM
- Median day of survival ([2]; 0.625 mg/kg IP): 28 days
- Variation by weight (g) ([2]; 0.625 mg/kg IP): +1.3 g
- Number of survivors ([2]; 0.625 mg/kg IP): 0/10
- T/C % ([2]; 0.625 mg/kg IP): 118%
- Median day of survival ([2]; 1.25 mg/kg IP): 33.0 days
- Variation by weight (g) ([2]; 1.25 mg/kg IP): +0.1 g
- Number of survivors ([2]; 1.25 mg/kg IP): 1/10
- T/C % ([2]; 1.25 mg/kg IP): 139%
- Median day of survival ([2]; 2.5 mg/kg IP): 31.25 days
- Variation by weight (g) ([2]; 2.5 mg/kg IP): +0.8 g
- Number of survivors ([2]; 2.5 mg/kg IP): 1/10
- T/C % ([2]; 2.5 mg/kg IP): 131%

SMILES: CCN(CC)CCCNc1ncc(C)c2[nH]c3ccccc3c12 [Derivative No. 1, 1-(3-diethylaminopropylamino) 4-methyl-5H-pyrido-[4,3-b]indole]
- Median day of survival ([3]; 10 mg/kg IP): 15.7 days
- Variation by weight ([3]; 10 mg/kg IP): -0.9 g
- Number of survivors ([3]; 10 mg/kg IP): 0/10
- T/C % ([3]; 10 mg/kg IP): 130%
- Median day of survival ([3]; 50 mg/kg IP): 21.0 days
- Variation by weight ([3]; 50 mg/kg IP): -2.6 g
- Number of survivors ([3]; 50 mg/kg IP): 0/10
- T/C % ([3]; 50 mg/kg IP): 174%
- survival at 312 h ([4]; 100 mg/kg): 100%
- Median day of survival [5]: 32.7 days
- Variation by weight [5]: -0.6 g
- Number of survivors ([5]; day D75): 0/10
- T/C % ([5]; survival time): 130%

SMILES: CCN(CC)CCCNc1ncc(C)c2[nH]c3ccc(O)cc3c12 [Derivative No. 8, 1-(diethylaminopropylamino)-8-hydroxy-4-methyl-5H-pyrido[4,3-b]indole]
- IC50 [1]: 80 nM
- Median day of survival ([3]; 0.625 mg/kg IP): 15.1 days
- Variation by weight ([3]; 0.625 mg/kg IP): -0.5 g
- Number of survivors ([3]; 0.625 mg/kg IP): 0/10
- T/C % ([3]; 0.625 mg/kg IP): 136%
- Median day of survival ([3]; 1.25 mg/kg IP): 15.7 days
- Variation by weight (g) ([3]; 1.25 mg/kg IP): +0.6 g
- Number of survivors ([3]; 1.25 mg/kg IP): 0/10
- T/C % ([3]; 1.25 mg/kg IP): 141%
- Median day of survival ([3]; 2.5 mg/kg IP): 16.1 days
- Variation by weight ([3]; 2.5 mg/kg IP): -1.2 g
- Number of survivors ([3]; 2.5 mg/kg IP): 0/10
- T/C % ([3]; 2.5 mg/kg IP): 147%
- Median day of survival ([3]; 5 mg/kg IP): 19.4 days
- Variation by weight ([3]; 5 mg/kg IP): -0.8 g
- Number of survivors ([3]; 5 mg/kg IP): 0/10
- T/C % ([3]; 5 mg/kg IP): 175%
- Median day of survival ([3]; 10 mg/kg IP): 12.0 days
- Variation by weight ([3]; 10 mg/kg IP): -1.1 g
- Number of survivors ([3]; 10 mg/kg IP): 0/10
- T/C % ([3]; 10 mg/kg IP): 108%

SMILES: CCN(CC)CCNc1ncc(C)c2c1c1cc(O)ccc1n2C.Cl.Cl [Derivative No. 19, 1-(2-diethylaminoethylamino)-4,5-dimethyl-8-hydroxy-5H-pyrido[4,3-b]indole dihydrochloride]
- IC50 ([1]; Mus musculus, L1210, 48 h): 150 nM
- Median day of survival ([3]; 5 mg/kg IP): 15.3 days
- Variation by weight (g) ([3]; 5 mg/kg IP): +0.5 g
- Number of survivors ([3]; 5 mg/kg IP): 0/6
- T/C % ([3]; 5 mg/kg IP): 142%
- Median day of survival ([3]; 10 mg/kg IP): 17.0 days
- Variation by weight ([3]; 10 mg/kg IP): -0.2 g
- Number of survivors ([3]; 10 mg/kg IP): 0/6
- T/C % ([3]; 10 mg/kg IP): 153%
- Median day of survival ([3]; 20 mg/kg IP): 20.3 days
- Variation by weight (g) ([3]; 20 mg/kg IP): +0.3 g
- Number of survivors ([3]; 20 mg/kg IP): 0/6
- T/C % ([3]; 20 mg/kg IP): 182%
- Median day of survival ([3]; 40 mg/kg IP): 15.3 days
- Variation by weight ([3]; 40 mg/kg IP): -2.1 g
- Number of survivors ([3]; 40 mg/kg IP): 0/6
- T/C % ([3]; 40 mg/kg IP): 137%

SMILES: CCN(CC)CCCNc1ncc(C)c2[nH]c3ccc(OC)cc3c12 [Derivative No. 4, 1-(3-diethylaminopropylamino)-8-methoxy-4-methyl-5H-pyrido[4,3-b]indole]
- IC50 ([1]; Mus musculus, L1210, 48 h): 300 nM
- Median day of survival ([3]; 5 mg/kg IP): 14.0 days
- Variation by weight (g) ([3]; 5 mg/kg IP): +1.1 g
- Number of survivors ([3]; 5 mg/kg IP): 0/10
- T/C % ([3]; 5 mg/kg IP): 121%
- Median day of survival ([3]; 10 mg/kg IP): 17.0 days
- Variation by weight (g) ([3]; 10 mg/kg IP): +0.7 g
- Number of survivors ([3]; 10 mg/kg IP): 0/10
- T/C % ([3]; 10 mg/kg IP): 147%
- Median day of survival ([3]; 20 mg/kg IP): 17.25 days
- Variation by weight ([3]; 20 mg/kg IP): -0.9 g
- Number of survivors ([3]; 20 mg/kg IP): 0/10
- T/C % ([3]; 20 mg/kg IP): 149%
- Median day of survival ([3]; 40 mg/kg IP): 20.3 days
- Variation by weight ([3]; 40 mg/kg IP): -3.4 g
- Number of survivors ([3]; 40 mg/kg IP): 0/10
- T/C % ([3]; 40 mg/kg IP): 176%
- Median day of survival ([3]; 80 mg/kg IP): 6.6 days
- Variation by weight ([3]; 80 mg/kg IP): -4.8 g
- Number of survivors ([3]; 80 mg/kg IP): 0/10
- T/C % ([3]; 80 mg/kg IP): 57%
- Median day of survival ([2]; 5 mg/kg IP): 29.0 days
- Variation by weight ([2]; 5 mg/kg IP): -1.9 g
- Number of survivors ([2]; 5 mg/kg IP): 0/10
- T/C % ([2]; 5 mg/kg IP): 135%
- survival at 312 h ([4]; 50 mg/kg): 100%
